The text below walks through data of ChEMBL document CHEMBL1128494, “Synthesis and sigma binding properties of 1'- and 3'-halo- and 1',3'-dihalo-N-normetazocine analogues” (J Med Chem, 1995).

For this experiment, the target named is Sigma non-opioid intracellular receptor 1 (Rattus norvegicus) (UniProt Q9R0C9). Put plainly: Ratio of the binding affinity against Sigma receptor type 2 to that of Sigma receptor type 1.
Chain of Sigma non-opioid intracellular receptor 1 (Rattus norvegicus) (Q9R0C9 whole entry): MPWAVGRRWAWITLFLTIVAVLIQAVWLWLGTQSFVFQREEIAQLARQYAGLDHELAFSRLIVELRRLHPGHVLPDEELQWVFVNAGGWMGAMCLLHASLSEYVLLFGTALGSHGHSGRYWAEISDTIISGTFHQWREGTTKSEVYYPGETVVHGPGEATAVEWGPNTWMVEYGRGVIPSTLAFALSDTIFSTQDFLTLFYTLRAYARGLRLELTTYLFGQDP
On to `CC(C)=CCN1CCC2(C)c3c(cc(Br)c(O)c3Br)CC1C2C` (single isomer, unassigned; (+)), for which the Ratio was 1.8. Take `CC1C2Cc3cc(Br)c(O)cc3C1(C)CCN2Cc1ccccc1` (stereo unspecified): the Ratio worked out at 18. For `CC(C)=CCN1CCC2(C)c3cc(O)c(I)cc3CC1C2C` (stereo in doubt; (-)-5b), the Ratio was found to be 2.7. For `CC(C)=CCN1CCC2(C)c3cc(O)c(Br)cc3CC1C2C` (single isomer, unassigned; (+)) the value was 3.2; for `CC1C2Cc3ccc(O)cc3C1(C)CCN2Cc1ccccc1` (stereo unspecified), 2600. For the compound `CC1C2Cc3cc(Br)c(O)c(Br)c3C1(C)CCN2Cc1ccccc1` (single isomer, unassigned; (+)), the Ratio was determined as 28. The same measure for `CC1C2Cc3ccc(O)c(Br)c3C1(C)CCN2Cc1ccccc1` (single isomer, unassigned; (+)): 200.

As for `CC1C2Cc3ccc(O)c(Cl)c3C1(C)CCN2Cc1ccccc1` (single isomer, unassigned; (+)), the Ratio worked out at 440.

For `CC(C)=CCN1CCC2(C)c3cc(O)c(Br)cc3CC1C2C` (single isomer, unassigned; (-)), the Ratio turned out to be 1.9.

On to `CC1C2Cc3cc(Cl)c(O)c(Cl)c3C1(C)CCN2Cc1ccccc1` (stereo unspecified), for which the Ratio came to 30. For `CC(C)=CCN1CCC2(C)c3cc(O)c(I)cc3CC1C2C` (stereo in doubt; (+)-5b) the value was 0.24.
